Legend:
NLuc = biological target: T1, NLuc (Oplophorus gracilirostris, UniProt Q9GV45, A31E/A60N/A81I/F95D/I117V/K70R/L54V/L99Q/M102K/N193R/P142E/Q151K/Q38R/Q45L/V71I/Y165I); type: biochemical; conditions: ±ATP
T1 construct: His tag (inferred from IMAC purification); made in house; host or cells: E. coli
Summary of the method: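 Luminescence was read 10 min after Nano-Glo reagent addition. Enzyme was 1 nM NLuc in PBS/0.05% IGEPAL buffer, with or without ATP.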

[1] = biological target: firefly luciferase (FLuc) (Photinus pyralis, UniProt P08659); assay: Thermal shift profiles (Thermofluor assay), FLuc; type: binding; design: unit of the concentration uncertain; conditions: compound 100 (unit uncertain); for Thermofluor FLuc, ATP: ATP (2 (unit uncertain));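 as to Thermofluor FLuc, No ATP: normalized first derivative of fluorescence (dF/dT) at the stated temperature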
firefly luciferase (FLuc), sequence (P08659 whole entry): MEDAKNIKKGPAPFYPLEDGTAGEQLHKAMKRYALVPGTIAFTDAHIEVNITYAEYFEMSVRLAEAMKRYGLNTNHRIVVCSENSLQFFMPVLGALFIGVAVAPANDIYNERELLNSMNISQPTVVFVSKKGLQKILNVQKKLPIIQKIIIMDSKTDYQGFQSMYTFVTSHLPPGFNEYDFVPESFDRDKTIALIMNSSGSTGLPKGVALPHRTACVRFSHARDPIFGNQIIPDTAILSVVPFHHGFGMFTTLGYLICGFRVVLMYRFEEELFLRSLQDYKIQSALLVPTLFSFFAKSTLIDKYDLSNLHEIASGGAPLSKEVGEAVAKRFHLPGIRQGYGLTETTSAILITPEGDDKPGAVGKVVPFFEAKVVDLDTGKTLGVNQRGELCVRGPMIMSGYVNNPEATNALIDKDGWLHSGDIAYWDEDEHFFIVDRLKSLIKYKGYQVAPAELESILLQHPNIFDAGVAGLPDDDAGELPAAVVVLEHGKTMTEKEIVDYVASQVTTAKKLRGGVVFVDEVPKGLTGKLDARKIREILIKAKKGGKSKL

T1 sequence (Q9GV45 other isoform, or with tags, fused parts or gaps with the stated changes): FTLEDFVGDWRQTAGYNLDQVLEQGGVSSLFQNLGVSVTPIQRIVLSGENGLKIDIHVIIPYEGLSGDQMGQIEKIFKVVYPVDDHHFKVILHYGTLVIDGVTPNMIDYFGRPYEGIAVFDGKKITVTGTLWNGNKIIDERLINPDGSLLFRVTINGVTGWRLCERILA

## Nc1ncnc2c1ncn2[C@@H]1O[C@H](COP(=O)(O)OP(=O)(O)OP(=O)(O)O)[C@@H](O)[C@H]1O [ATP]
NLuc
  effect on NLuc activity (in words): no effect on NLuc activity

## COc1ccc(NC(=O)C2CCN(C(=O)c3ncn4c3COC(c3ccccc3)C4)CC2)cc1Cl (stereo not drawn) [NCGC 00449919]
[1]; 20.000 °C
  Thermofluor FLuc, No ATP: 0.250
  Thermofluor FLuc, ATP: 0.934
[1]; 20.993 °C
  Thermofluor FLuc, No ATP: 0.185
  Thermofluor FLuc, ATP: 0.955
[1]; 21.987 °C
  Thermofluor FLuc, No ATP: 0.201
  Thermofluor FLuc, ATP: 0.975
[1]; 22.980 °C
  Thermofluor FLuc, No ATP: 0.152
  Thermofluor FLuc, ATP: 0.992
[1]; 23.974 °C
  Thermofluor FLuc, No ATP: 0.098
  Thermofluor FLuc, ATP: 1
[1]; 24.967 °C
  Thermofluor FLuc, No ATP: 0.101
  Thermofluor FLuc, ATP: 0.999
[1]; 25.960 °C
  Thermofluor FLuc, No ATP: 0.104
  Thermofluor FLuc, ATP: 0.991
[1]; 26.954 °C
  Thermofluor FLuc, No ATP: 0.059
  Thermofluor FLuc, ATP: 0.977
[1]; 27.947 °C
  Thermofluor FLuc, No ATP: 0.054
  Thermofluor FLuc, ATP: 0.961
[1]; 28.940 °C
  Thermofluor FLuc, No ATP: 0.030
  Thermofluor FLuc, ATP: 0.943
[1]; 29.934 °C
  Thermofluor FLuc, No ATP: 0.043
  Thermofluor FLuc, ATP: 0.925
[1]; 30.927 °C
  Thermofluor FLuc, No ATP: 0.015
  Thermofluor FLuc, ATP: 0.906
[1]; 31.921 °C
  Thermofluor FLuc, No ATP: 0.031
  Thermofluor FLuc, ATP: 0.886
[1]; 32.914 °C
  Thermofluor FLuc, No ATP: 0.002
  Thermofluor FLuc, ATP: 0.862
[1]; 33.907 °C
  Thermofluor FLuc, No ATP: 0.008
  Thermofluor FLuc, ATP: 0.832
[1]; 34.901 °C
  Thermofluor FLuc, No ATP: 0.005
  Thermofluor FLuc, ATP: 0.793
[1]; 35.894 °C
  Thermofluor FLuc, No ATP: 0.014
  Thermofluor FLuc, ATP: 0.741
[1]; 36.887 °C
  Thermofluor FLuc, No ATP: 0.000
  Thermofluor FLuc, ATP: 0.675
[1]; 37.881 °C
  Thermofluor FLuc, No ATP: 0.036
  Thermofluor FLuc, ATP: 0.591
[1]; 38.874 °C
  Thermofluor FLuc, No ATP: 0.034
  Thermofluor FLuc, ATP: 0.492
[1]; 39.868 °C
  Thermofluor FLuc, No ATP: 0.075
  Thermofluor FLuc, ATP: 0.38
[1]; 40.861 °C
  Thermofluor FLuc, No ATP: 0.126
  Thermofluor FLuc, ATP: 0.264
[1]; 41.854 °C
  Thermofluor FLuc, No ATP: 0.197
  Thermofluor FLuc, ATP: 0.155
[1]; 42.848 °C
  Thermofluor FLuc, No ATP: 0.295
  Thermofluor FLuc, ATP: 0.067
[1]; 43.841 °C
  Thermofluor FLuc, No ATP: 0.412
  Thermofluor FLuc, ATP: 0.013
[1]; 44.835 °C
  Thermofluor FLuc, No ATP: 0.542
  Thermofluor FLuc, ATP: 0
[1]; 45.828 °C
  Thermofluor FLuc, No ATP: 0.677
  Thermofluor FLuc, ATP: 0.03
[1]; 46.821 °C
  Thermofluor FLuc, No ATP: 0.764
  Thermofluor FLuc, ATP: 0.099
[1]; 47.815 °C
  Thermofluor FLuc, No ATP: 0.849
  Thermofluor FLuc, ATP: 0.195
[1]; 48.808 °C
  Thermofluor FLuc, No ATP: 0.904
  Thermofluor FLuc, ATP: 0.306
[1]; 50.795 °C
  Thermofluor FLuc, No ATP: 0.949
  Thermofluor FLuc, ATP: 0.532
[1]; 51.788 °C
  Thermofluor FLuc, No ATP: 1.000
  Thermofluor FLuc, ATP: 0.632
[1]; 52.782 °C
  Thermofluor FLuc, ATP: 0.721
[1]; 53.775 °C
  Thermofluor FLuc, No ATP: 1.000
  Thermofluor FLuc, ATP: 0.796
[1]; 54.768 °C
  Thermofluor FLuc, No ATP: 0.991
  Thermofluor FLuc, ATP: 0.857
[1]; 55.762 °C
  Thermofluor FLuc, No ATP: 0.972
  Thermofluor FLuc, ATP: 0.903
[1]; 56.755 °C
  Thermofluor FLuc, No ATP: 0.954
  Thermofluor FLuc, ATP: 0.933
[1]; 57.748 °C
  Thermofluor FLuc, No ATP: 0.930
  Thermofluor FLuc, ATP: 0.95
[1]; 58.742 °C
  Thermofluor FLuc, No ATP: 0.908
  Thermofluor FLuc, ATP: 0.958
[1]; 59.735 °C
  Thermofluor FLuc, No ATP: 0.892
  Thermofluor FLuc, ATP: 0.959
[1]; 60.729 °C
  Thermofluor FLuc, No ATP: 0.925
  Thermofluor FLuc, ATP: 0.959
[1]; 61.722 °C
  Thermofluor FLuc, No ATP: 0.872
  Thermofluor FLuc, ATP: 0.958
[1]; 62.715 °C
  Thermofluor FLuc, No ATP: 0.877
  Thermofluor FLuc, ATP: 0.96
[1]; 63.709 °C
  Thermofluor FLuc, No ATP: 0.837
  Thermofluor FLuc, ATP: 0.963
[1]; 65.695 °C
  Thermofluor FLuc, No ATP: 0.837
  Thermofluor FLuc, ATP: 0.975
[1]; 66.689 °C
  Thermofluor FLuc, No ATP: 0.789
  Thermofluor FLuc, ATP: 0.981
[1]; 68.676 °C
  Thermofluor FLuc, No ATP: 0.772
  Thermofluor FLuc, ATP: 0.992
[1]; 69.669 °C
  Thermofluor FLuc, No ATP: 0.774
  Thermofluor FLuc, ATP: 0.996
[1]; 70.662 °C
  Thermofluor FLuc, No ATP: 0.720
  Thermofluor FLuc, ATP: 0.998
[1]; 71.656 °C
  Thermofluor FLuc, No ATP: 0.708
  Thermofluor FLuc, ATP: 0.999
[1]; 72.649 °C
  Thermofluor FLuc, No ATP: 0.718
  Thermofluor FLuc, ATP: 0.999
[1]; 73.643 °C
  Thermofluor FLuc, No ATP: 0.669
  Thermofluor FLuc, ATP: 0.998
[1]; 74.636 °C
  Thermofluor FLuc, No ATP: 0.675
  Thermofluor FLuc, ATP: 0.997
[1]; 75.629 °C
  Thermofluor FLuc, No ATP: 0.640
  Thermofluor FLuc, ATP: 0.995

Source: paper PMC12064818, “A general assay platform to study protein pharmacology using ligand-dependent structural dynamics” (Nature Communications, 2025)
